The source of these data is patent publication US20220220095A1, “N-((HETEROARYL)METHYL)-1-TOSYL-1H-PYRAZOLE-3-CARBOXAMIDE DERIVATIVES AS Kv3 POTASSIUM CHANNEL ACTIVATORS FOR TREATING NEUROLOGICAL AND [sequence] DISORDERS” (H. Lundbeck A/S, priority 2019, published 2022).

Each structure is given as a SMILES string.

The test deals with T1, hKv3.1b (Homo sapiens, UniProt P48547).
T1 construct: expressed in transfected cells
T1 sequence (P48547 1-585 isoform P48547-2): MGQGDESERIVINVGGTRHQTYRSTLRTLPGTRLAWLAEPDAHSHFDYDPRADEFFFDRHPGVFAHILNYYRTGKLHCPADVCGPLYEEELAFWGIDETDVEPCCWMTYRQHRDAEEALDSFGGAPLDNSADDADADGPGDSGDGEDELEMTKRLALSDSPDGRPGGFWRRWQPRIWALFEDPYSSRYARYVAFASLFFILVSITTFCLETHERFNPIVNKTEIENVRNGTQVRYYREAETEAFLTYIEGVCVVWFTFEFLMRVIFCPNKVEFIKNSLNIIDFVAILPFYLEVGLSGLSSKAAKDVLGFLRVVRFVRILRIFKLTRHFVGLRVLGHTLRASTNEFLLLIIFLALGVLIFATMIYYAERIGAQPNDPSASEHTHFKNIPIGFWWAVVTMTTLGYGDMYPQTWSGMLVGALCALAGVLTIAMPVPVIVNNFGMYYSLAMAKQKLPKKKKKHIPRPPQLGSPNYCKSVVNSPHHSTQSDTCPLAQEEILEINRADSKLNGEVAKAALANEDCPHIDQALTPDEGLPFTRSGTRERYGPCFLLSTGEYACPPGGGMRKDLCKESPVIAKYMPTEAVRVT
The test can be described thus: Automated whole-cell patch-clamp (QPatch-16x) on HEK-293 cells stably expressing hKv3.1b: shift of voltage threshold for channel activation. The format is cell-based. Particulars: HEK-293 hKv3.1b; for ECdelta5mV: concentration needed to shift the threshold 5 mV, read out from fitted concentration response curve; for Max Delta threshold: maximum absolute shift of activation threshold to more hyperpolarized potentials at the tested concentrations (0.37, 1.11, 3.33, 10, 30 μM). As to the method: HEK-293 cells stably expressing hKv3.1b was used for the experiments. Cells were cultured in DMEM medium supplemented with 10% Fetal Bovine Serum, 100 ug/mL Geneticidin and 100 u/mL Penicillin/Streptomycin (all from Gibco). Cells were grown to 80-90% confluency at 37° C. and 5% CO2. On the day of the experiment the cells were detached from the tissue culture flasks by Detachin and resuspended in serum free medium containing 25 mM HEPES and transferred to the cell hotel of the QPatch. The cells were used for experiments 0-5 hours after detachment.
Patch-clamp recordings were performed using the automated recording system QPatch-16x (Sophion Bioscience, Denmark). Cells were centrifuged, SFM removed and the cells were resuspended in extracellular buffer containing (in mM): 145 NaCl, 4 KCl, 1 MgCl2, 2 CaCl2, 10 HEPES and 10 glucose (added fresh on the day of experiment); pH 7.4 adjusted with NaOH, 305 mOsm adjusted with sucrose.
Single cell whole-cell recordings were carried out using an intracellular solution containing (in mM): 120 KCl, 32.25/10 KOH/EGTA, 5.374 CaCl2, 1.75 MgCl2, 10 HEPES, 4 Na2ATP (added fresh on the day), pH 7.2 adjusted with KOH, […] adjusted with sucrose. Cell membrane potentials were held at −80 mV and currents were evoked by voltage steps (200 ms duration) from −70 mV to +10 mV (in 10 mV increments).
Leak subtraction protocol was applied at −33% of the sweep amplitude, and serial resistance values were constantly monitored.
Any cell where serial resistance exceeded 25 MOhm, membrane resistance less than 200 MOhm or current size at −10 mV less than 200 pA was eliminated from the subsequent analysis.
Data analysis was performed using Sophion's QPatch assay software in combination with Microsoft Excel™ (Redmond, Wash., USA).
Current voltage relationships were plotted from the peak current at the individual voltage steps normalized to the vehicle addition at 10 mV. The voltage threshold for channel activation was defined as 5% activation of the peak current at 10 mV in presence of vehicle. The activity of the compounds was described as the ability to shift this current voltage relationship to more hyperpolarized potentials and is given as the maximum absolute shift possible at the tested concentrations (0.37, 1.11, 3.33, 10, 30 μM). Concentration response curves were plotted from the threshold shift at the individual concentrations and were fitted excel fit model 205 sigmodal dose-response model (fit=A+((B−A)/1+((C/x)^D)))), where A is the minimum value, B the maximum value, C the EC50 value and D the slope of the curve. The concentration needed to shift the threshold 5 mV was readout from this curve (ECdelta 5 mV).

As for `COc1ccc(S(=O)(=O)n2ccc(C(=O)NCc3cncnc3)n2)cc1` [Compound 7, 1-(4-methoxybenzene-1-sulfonyl)-N-[(pyrimidin-5-yl)methyl]-1H-pyrazole-3-carboxamide], the ECdelta5mV is reported as 2900 nM and the “Max Delta threshold” value amounted to 18 mV.

Consider `Cc1ccc(S(=O)(=O)n2ccc(C(=O)NCc3cocn3)n2)cc1` [Compound 49, 1-(4-methylbenzene-1-sulfonyl)-N-[(1,3-oxazol-4-yl)methyl]-1H-pyrazole-3-carboxamide], for which the ECdelta5mV is on record as 2000 nM and the “Max Delta threshold” value is given as 19 mV.

`COc1ccc(S(=O)(=O)n2ccc(C(=O)NCc3cocn3)n2)cc1` [Compound 12, 1-(4-methoxybenzene-1-sulfonyl)-N-[(1,3-oxazol-4-yl)methyl]-1H-pyrazole-3-carboxamide]: the ECdelta5mV is on record as 3800 nM and the “Max Delta threshold” value amounted to 16 mV.

For the molecule `Cc1ccc(S(=O)(=O)n2ccc(C(=O)NCc3cnoc3)n2)cc1` [Compound 51, 1-(4-methylbenzene-1-sulfonyl)-N-[(1,2-oxazol-4-yl)methyl]-1H-pyrazole-3-carboxamide], the ECdelta5mV was 3300 nM and the “Max Delta threshold” value amounted to 16 mV.

Regarding `Cc1ccc(S(=O)(=O)n2ccc(C(=O)NCc3nc(C)cs3)n2)cc1` [Compound 61, 1-(4-methylbenzene-1-sulfonyl)-N-[(4-methyl-1,3-thiazol-2-yl)methyl]-1H-pyrazole-3-carboxamide], the ECdelta5mV is 2000 nM and the “Max Delta threshold” value is listed as 19 mV.

Regarding `Cc1ccc(S(=O)(=O)n2ccc(C(=O)NCc3ncon3)n2)cc1` [Compound 57, 1-(4-methylbenzene-1-sulfonyl)-N-[(1,2,4-oxadiazol-3-yl)methyl]-1H-pyrazole-3-carboxamide], the ECdelta5mV amounted to 4900 nM and the “Max Delta threshold” value turned out to be 13 mV.

As to `COc1ccc(S(=O)(=O)n2ccc(C(=O)NCc3nc(C)no3)n2)cc1` [Compound 42, 1-(4-methoxybenzene-1-sulfonyl)-N-[(3-methyl-1,2,4-oxadiazol-5-yl)methyl]-1H-pyrazole-3-carboxamide], the ECdelta5mV turned out to be 2000 nM and the “Max Delta threshold” value is reported as 18 mV.

As for `Cc1cc(CNC(=O)c2ccn(S(=O)(=O)c3ccc(F)cc3)n2)on1` [Compound 31, 1-(4-fluorobenzene-1-sulfonyl)-N-[(3-methyl-1,2-oxazol-5-yl)methyl]-1H-pyrazole-3-carboxamide], the ECdelta5mV is on record as 4100 nM and the “Max Delta threshold” value is 13 mV.

For `Cc1ccc(S(=O)(=O)n2ccc(C(=O)NCc3ncco3)n2)cc1` [Compound 45, 1-(4-methylbenzene-1-sulfonyl)-N-[(1,3-oxazol-2-yl)methyl]-1H-pyrazole-3-carboxamide], the ECdelta5mV was found to be 2800 nM and the “Max Delta threshold” value worked out at 15 mV.

On to `Cc1ccc(S(=O)(=O)n2ccc(C(=O)NCc3cnc(C)cn3)n2)c(C)c1` [Compound 77, 1-(2,4-dimethylphenyl)sulfonyl-N-[(5-methylpyrazin-2-yl)methyl]pyrazole-3-carboxamide], for which the ECdelta5mV amounted to 1100 nM and the “Max Delta threshold” value is 29 mV.

Take `COc1ccc(S(=O)(=O)n2ccc(C(=O)NCc3ccon3)n2)cc1` [Compound 8, 1-(4-methoxybenzene-1-sulfonyl)-N-[(1,2-oxazol-3-yl)methyl]-1H-pyrazole-3-carboxamide]: the ECdelta5mV is 3800 nM and the “Max Delta threshold” value is listed as 16 mV.

As to `Cc1cnc(CNC(=O)c2ccn(S(=O)(=O)c3ccccc3C)n2)nc1` [Compound 25, 1-(2-methylbenzene-1-sulfonyl)-N-[(5-methylpyrimidin-2-yl)methyl]-1H-pyrazole-3-carboxamide], the ECdelta5mV was found to be 6500 nM and the “Max Delta threshold” value came to 13 mV.

For the molecule `COc1ccc(S(=O)(=O)n2ccc(C(=O)NCc3ccno3)n2)cc1` [Compound 10, 1-(4-methoxybenzene-1-sulfonyl)-N-[(1,2-oxazol-5-yl)methyl]-1H-pyrazole-3-carboxamide], the ECdelta5mV worked out at 3400 nM and the “Max Delta threshold” value came to 17 mV.

On to `Cc1cc(CNC(=O)c2ccn(S(=O)(=O)c3ccccc3C)n2)on1` [Compound 29, 1-(2-methylbenzene-1-sulfonyl)-N-[(3-methyl-1,2-oxazol-5-yl)methyl]-1H-pyrazole-3-carboxamide], for which the ECdelta5mV amounted to 3100 nM and the “Max Delta threshold” value is listed as 22 mV.

For the molecule `Cc1ccc(S(=O)(=O)n2ccc(C(=O)NCc3nc(C)no3)n2)cc1` [Compound 48, 1-(4-methylbenzene-1-sulfonyl)-N-[(3-methyl-1,2,4-oxadiazol-5-yl)methyl]-1H-pyrazole-3-carboxamide], the ECdelta5mV is recorded as 1500 nM and the “Max Delta threshold” value was 24 mV.

For the molecule `Cc1ccc(S(=O)(=O)n2ccc(C(=O)NCc3cnn(C)c3)n2)cc1` [Compound 62, 1-(4-methylbenzene-1-sulfonyl)-N-[(1-methyl-1H-pyrazol-4-yl)methyl]-1H-pyrazole-3-carboxamide], the ECdelta5mV came to 1600 nM and the “Max Delta threshold” value came to 25 mV.

Turning to `Cc1ccc(S(=O)(=O)n2ccc(C(=O)NCc3cnc(C)cn3)n2)c(F)c1` [Compound 80, 1-(2-fluoro-4-methyl-phenyl)sulfonyl-N-[(5-methylpyrazin-2-yl)methyl]pyrazole-3-carboxamide], the ECdelta5mV came out at 1500 nM and the “Max Delta threshold” value is given as 31 mV.

`Cc1cnc(CNC(=O)c2ccn(S(=O)(=O)c3ccccc3C)n2)o1` [Compound 17, 1-(2-methylbenzene-1-sulfonyl)-N-[(5-methyl-1,3-oxazol-2-yl)methyl]-1H-pyrazole-3-carboxamide]: the ECdelta5mV came to 3900 nM and the “Max Delta threshold” value amounted to 15 mV.

With `Cc1ccc(S(=O)(=O)n2ccc(C(=O)NCc3ccno3)n2)cc1` [Compound 55, 1-(4-methylbenzene-1-sulfonyl)-N-[(1,2-oxazol-5-yl)methyl]-1H-pyrazole-3-carboxamide], the ECdelta5mV is 1800 nM and the “Max Delta threshold” value is given as 20 mV.

With `Cc1cnc(CNC(=O)c2ccn(S(=O)(=O)c3cc(C)c(F)c(C)c3)n2)cn1` [Compound 81, 1-(4-fluoro-3,5-dimethyl-phenyl)sulfonyl-N-[(5-methylpyrazin-2-yl)methyl]pyrazole-3-carboxamide], the ECdelta5mV came out at 3000 nM and the “Max Delta threshold” value is 17 mV.

For the molecule `COc1ccc(S(=O)(=O)n2ccc(C(=O)NCc3cnccn3)n2)cc1C` [Compound 4, 1-(4-methoxy-3-methylbenzene-1-sulfonyl)-N-[(pyrazin-2-yl)methyl]-1H-pyrazole-3-carboxamide], the ECdelta5mV stood at 2100 nM and the “Max Delta threshold” value turned out to be 21 mV.

Turning to `Cc1ccc(S(=O)(=O)n2ccc(C(=O)NCc3cnsc3)n2)cc1` [Compound 33, 1-(4-methylbenzene-1-sulfonyl)-N-[(1,2-thiazol-4-yl)methyl]-1H-pyrazole-3-carboxamide], the ECdelta5mV is given as 2800 nM and the “Max Delta threshold” value was 12 mV.

In the case of `Cc1ccccc1S(=O)(=O)n1ccc(C(=O)NCc2cnn(C)c2)n1` [Compound 28, 1-(2-methylbenzene-1-sulfonyl)-N-[(1-methyl-1H-pyrazol-4-yl)methyl]-1H-pyrazole-3-carboxamide], the ECdelta5mV is recorded as 2400 nM and the “Max Delta threshold” value came out at 22 mV.
